The values below come from publication PMC5651845, “A New Generation of Arachidonic Acid Analogues as Potential Neurological Agent Targeting Cytosolic Phospholipase A2” (Scientific Reports, 2017).

The structures appear in SMILES notation.

Experiment [1] has as its system ROS production in BV-2 cells. Description: ROS assay (CM-H2DCFDA) in LPS-stimulated BV-2 cells. The format is cell-based, murine. The settings on record: 2, 10 and 20 μM, 2 µg/mL LPS, 14 h. The protocol:
CM-H2DCFDA was used as the main detection reagent for ROS for this study. Being a chloromethyl derivative of the conventional H2DCFDA, it is better retained in the cells due to the reaction of its chloromethyl group with intracellular thiol species. In addition, esterase present in the cells would convert the acetate group found in CM-H2DCFDA into carboxylic acid, further retaining it in the cell. To investigate the ROS production by BV-2 cell stimulated with LPS, intracellular ROS was measured 14 h post-stimulation with CM-H2DCFDA fluorescence. A 2-fold increase in ROS was detected as compared to the control. […] This could be because the activation of ROS production might not be solely due to the inflammatory pathway mechanism involving cPLA2. It was reported in previous studies that a multitude of several other processes producing ROS may be at work[51],[52].
20,000 BV-2 cells were seeded into a 96-well plate in 100 uL of culture medium and allowed to grow overnight. When a 90% cell confluency was observed, lipopolysaccharide pre-dissolved in culture medium to achieve a concentration of 2 μg/mL was added to each well of the 96 well. Different concentrations of test compounds in DMSO were added to the LPS containing medium and was then transferred to the cells. […] Fluorescence detection was done by exciting the dye at 485 nm and detection of emission at 525 nm. […]

The target of experiment [2] is T1, sPLA2, human recombinant type V (Homo sapiens, UniProt P39877).
T1 construct: purchased Cayman Chemical 10009563
T1 sequence (P39877 21-138): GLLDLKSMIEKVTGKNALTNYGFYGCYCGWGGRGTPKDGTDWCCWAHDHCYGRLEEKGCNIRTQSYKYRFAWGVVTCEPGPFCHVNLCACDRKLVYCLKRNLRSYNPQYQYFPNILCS
Put plainly: EnzChek phospholipase A2 fluorogenic assay (selectivity) with sPLA2. Conditions: 10 μM, relative to DMSO control. The format is biochemical. The protocol:
To further explore their selectivity towards cPLA2, 10 μM of 2g and 2i were evaluated for their inhibition against recombinant sPLA2 using the fluorogenic PLA2 assay (Fig. 3C).
The assay was conducted as described above. Instead of adding cPLA2, it was replaced by sPLA2. 48 μL of 1X phospholipase A2 reaction buffer was added into each well of a 96-wells plate. This was followed by addition of 1 μL of sPLA2, human recombinant type V (10009563, Cayman Chemical) and 1 μL of 1 mM of the respective compound or thioetheramide-PC (62750, Cayman Chemical) dissolved in DMSO. The final concentration of the test compound achieved is 10 μM. The reaction was initiated by adding 50 μL of the substrate solution and incubating at room temperature for 1 h. Fluorescence was measured using a Varioskan plate reader by exciting at 485 nm, while fluorescence emission was detected at 515 nm. Positive control was performed when 1 μL of test compound was replaced by vehicle DMSO. % activity was expressed as the mean value of duplicate wells from four experiments. % activity was calculated by the following formula:2 %activity=fluorescenceoftestedwell−background/fluorescenceofpostivecontrol−background

For the compound `CCCCC/C=C\C/C=C\C/C=C\C/C=C\CCCCC(=O)Nc1cccc(C(=O)O)c1` [2i], the “ROS level, concentration dependence” value in experiment [1] is reported as “dose-dependent decrease in ROS”. Further, in experiment [2], the sPLA2 activity result was “did not provide a significant change in sPLA2 activity”.
